Reference: article PMC6628379, “Synthesis and Biological Evaluation of Novel Selenyl and Sulfur-L-Dopa Derivatives as Potential Anti-Parkinson’s Disease Agents” (Biomolecules, 2019)
“Also recorded” adds a separate entry of the source. Counter-ions that a name gives are not always drawn. Like-named read-outs stand apart in the source and are kept apart here. Where a SMILES comes first, the peptide text is derived from it. [ ]: non-standard residue; d: D form. dDopa = N[C@H](Cc1ccc(O)c(O)c1)C(=O)O; dSeMet = C[Se]CC[C@@H](N)C(=O)O

Tests used:
[1] = Stability in human plasma; assay type: in vitro ADME; conditions: for half-life at 1 mg/mL: human, 80% human plasma with 20% 0.02 M phosphate buffer
Description: Human plasma was purchased from 3H Biomedical (Uppsala, Sweden, Europe). SP stock solution was added to a mixture of 80% plasma and 20% of 0.02 M phosphate buffer (pH 7.4) at 37 °C to obtain a final drug concentration of 1 mg/mL. Samples of 100 μL were taken at various times, and 200 μL of MeOH containing 0.01 M HCl was used to stop the enzymatic activity. The samples were centrifuged for 5 min at 5000× g, and the resultant supernatants were filtered and analyzed using HPLC [17].

[2] = Octanol/water partition coefficient (logP o/w); assay type: physicochemical; conditions: n-octanol / phosphate buffer pH 7.4, HPLC
Description: The clogP values were calculated using ACD LogP software package, version 4.55 (Advanced Chemistry Development Inc., Toronto, Canada). Octanol/water partition coefficients (logP o/w) were determined by placing 5 mg of SP into 1 mL of anhydrous n-octanol and an equal volume of phosphate buffer pH 7.4. After vigorously shaking, the resulting mixture was allowed to stand until the complete separation of the two phases. Finally, each phase was filtered and analyzed using HPLC [16].

[3] = BBB-PAMPA (parallel artificial membrane permeability); assay type: in vitro ADME, porcine; conditions: for Classification: PAMPA-BBB class by Pe; for Papp at 16 h: pig, PAMPA-BBB, 16 h at room temperature, pH 7.4, read-out: Pe; for capacity to cross the BBB: BBB-PAMPA
Description: The blood–brain barrier (BBB)-PAMPA method was used to evaluate the ability of SPs to cross the BBB via passive diffusion. The artificial membrane of each microplate was coated with 5 µL of a porcine polar brain lipid extract mixture (purchased from Avantis Polar Lipids, Alabaster, AL, USA). A total of 150 µL of drug solution was put on the membrane (donor plate) while the bottom plate was filled with 300 µL of buffer solution (acceptor plate). The system was incubated for 16 h at room temperature and then the concentration of the drug in the acceptor plate was evaluated using HPLC. The concentration of the drug at the theoretical equilibrium was determined diluting 500 µM of SP solution with phosphate buffer pH 7.4 and then analyzed using HPLC [18]. Pe (10^−6 cm/s) was calculated as the effective permeability coefficient.

[4] = test system: differentiated SH-SY5Y neuroblastoma cells; test: Nitroblue tetrazolium (NBT) assay; assay type: cell-based, human; conditions: 1 µM, 24 h incubation
Description: The differentiated SH-SY5Y cells were treated with SP6 and/or LD compounds at 1 µM for 24 h, and then 10^6 cells were harvested, centrifuged for 5 min at 1200 rpm, and resuspended in 1 mL 0.9% NaCl, in which NBT (nitro blue tetrazolium chloride, 1 mg/mL) was dissolved. The cells were incubated for 3 h at 37 °C, centrifuged (10 min at 1200 rpm), resuspended in 1 mL dimethyl sulfoxide, and left for 20 min at 37 °C. Then, cells were plated in a 96 well plate (2 x 10^5 cell/well) and read at 550 nm using a scanning multi-well spectrophotometer (Cary50MPR, Varian).

[5] = test system: undifferentiated SH-SY5Y human neuroblastoma cells; test: MTT cell viability, undifferentiated SH-SY5Y cells; assay type: cell-based
[6] = test system: RA/PMA-differentiated and 6-OHDA-lesioned SH-SY5Y human neuroblastoma cells; test: Neuroprotection against 6-OHDA (MTT); assay type: cell-based; conditions: 1 µM
Description: (§1) In order to obtain a dopaminergic phenotype, the cells were treated with retinoic acid (RA)/phorbol 12-myristate 13-acetate (PMA) in a medium supplemented with RA (10 μM) for three days; then, the medium was removed and replaced with growth medium containing PMA (80 nM) for three days.
(§2) SP1–6 were dissolved in dimethyl sulfoxide (DMSO). SH-SY5Y cells were plated onto 96-well plates (2700 cell/well). The undifferentiated cells (UC) were grown for 24 h in normal medium and then incubated with seven different compounds at different concentrations (1, 10, and 100 µM). […] After 24 h and 48 h of incubation with or without the compounds, the both sets of cells (UC and DC) were assessed for viability by using a colorimetric assay of 3-[4,5-dimethylthiazol-2-yl]-2,5-diphenyltetrazolium bromide (MTT). The differentiated SH-SY5Y cells were treated with SP6 or LD compounds at 1 µM for 1 h and then exposed to 25, 50, 75, and 150 µM 6-OHDA. After a further 24 h of incubation, the cultures were assessed for viability using an MTT assay. For experiments with the neurotoxin H2O2, the differentiated SH-SY5Y cells were pretreated with SP6 or LD compounds at 1 µM for 24 h and then exposed to 25, 150, and 300 µM H2O2 for a further 24 h. Cell viability was detected using the MTT assay.

[7] = test system: differentiated SH-SY5Y human neuroblastoma cells; test: Intracellular ROS measurement (H2DCFDA assay); assay type: cell-based; conditions: 1 µM for 24 h, then 25 µM H2O2; 2.5 and 5 min; vs CTRL + 25 µM H2O2
Description: SHSY-5Y human neuroblastoma cells were plated (2700 cells/well) into special optics 96-well plates (Corning-Costar, New York, USA) and the cells were treated with retinoic acid (RA)/phorbol 12-myristate 13-acetate (PMA) in order to obtain a dopaminergic phenotype. The differentiated cells were treated with SP1-6 at 1 μM for 24 h and then washed with an imaging buffer (125 mM NaCl, 5 mM KCl, 1.2 mM MgSO4, 5 mM glucose, 25 mM HEPES, and 2 mM CaCl2). A concentration of 10 μM of 2',7'-dichlorofluorescin diacetate (H2DCFDA, Molecular probes, Life Technologies REF […]) was added and the plates were incubated at 37 °C for 30 min. After the incubation, cells were washed with an imaging buffer and treated with 25 μM H2O2 for an immediate fluorescence measurement. Plates were read every 50 s from 0 to 5 min for kinetic data analysis using a microplate reader (Synergy H1, BioTek), with excitation and emission wavelengths at 490 nm and 520 nm, respectively, and analyzed by Gen 5 version 2.08 (BioTek).

[8] = test system: differentiated and H2O2-lesioned SH-SY5Y human neuroblastoma cells; test: Neuroprotection against H2O2 (MTT); assay type: cell-based; conditions: 1 µM
Description: as §1, §2

[9] = test system: differentiated SH-SY5Y human neuroblastoma cells; test: MTT cell viability, RA/PMA-differentiated SH-SY5Y cells; assay type: cell-based; conditions: dopaminergic differentiated cells, 48 h, 100 µM
[10] = 80% human plasma, 20% 0.02 M phosphate buffer pH 7.4, 37 °C
[11] = pH 7.4, 80% human plasma, 20% 0.02 M phosphate buffer pH 7.4, 37 °C, read-out: t1/2
[12] = pH 7.4, human plasma, read-out: half-life
[13] = 24 h, all tested concentrations (1, 10, 100 µM)
[14] = 24 h before and during 24 h with 150 µM H2O2
[15] = 24 h before and during 24 h with 300 µM H2O2

Row | half-life at 1 mg/mL [1, 11] [h] | Structure (SMILES) | Kobs [1, 10] | t1/2 [1, 10] | logP [2] | Classification [3] | Papp at 16 h [3] [×10⁻⁶ cm/s] | half-life at 1 mg/mL [1, 12] [h] | capacity to cross the BBB [3] | stability in plasma ([1]; human plasma) | superoxide anion level [4] | cytotoxic effect [5, 13] | protection against 6-OHDA toxicity (cell viability) ([6]; 1 h before and during 24 h with 25, 50, 75, 150 µM 6-OHDA) | antioxidant activity (intracellular ROS) [7] | protection against H2O2 toxicity (cell viability) [8, 14] | protection against H2O2 toxicity (cell viability) [8, 15] | cytotoxic effect [9] | cytotoxic effect ([5]; 48 h, 100 µM) | protection against 6-OHDA toxicity (cell viability) ([6]; 1 h before and during 24 h with 150 µM 6-OHDA)
1 | – | COC(=O)[C@@H](Cc1ccc(OC(C)=O)c(OC(C)=O)c1)NC(=O)C[Se][Se]CC(=O)N[C@H](Cc1ccc(OC(C)=O)c(OC(C)=O)c1)C(=O)OC [SP4, Methyl (2R)-3-[3,4-bis(acetyloxy)phenyl]-2-{2-[({[(2R)-3-[3,4-bis(acetyloxy)phenyl]-1-methoxy-1-oxopropan-2-yl]carbamoyl}methyl)diselanyl]acetamido}propanoate] | Immediate hydrolysis | Immediate hydrolysis | -1.17 | CNS^+ (CNS^+ (indicative of high BBB permeation): Pe (10^−6 cm/s) > 4) | 0.94 | – | – | – | – | – | – | – | – | – | – | – | –
2 | 1.1 | COC(=O)[C@@H](Cc1ccc(OC(C)=O)c(OC(C)=O)c1)NC(=O)CCSSCCC(=O)N[C@H](Cc1ccc(OC(C)=O)c(OC(C)=O)c1)C(=O)OC [SP2, Methyl (2R)-3-[3,4-bis(acetyloxy)phenyl]-2-{3-[(2-{[(2R)-3-[3,4-bis(acetyloxy)phenyl]-1-methoxy-1-oxopropan-2-yl]carbamoyl}ethyl)disulfanyl]propanamido}propanoate] | 0.010 (±0.001) min^−1 | – | 0.828 | CNS^− (CNS^− (indicative of low BBB permeation): Pe (10^−6 cm/s) < 2) | 1.82 | – | – | – | – | – | – | – | – | – | – | – | –
3 | 0.48 | COC(=O)[C@@H](Cc1ccc(OC(C)=O)c(OC(C)=O)c1)NC(=O)CSSCC(=O)N[C@H](Cc1ccc(OC(C)=O)c(OC(C)=O)c1)C(=O)OC [SP1, Methyl (2R)-3-[3,4-bis(acetyloxy)phenyl]-2-{2-[({[(2R)-3-[3,4-bis(acetyloxy)phenyl]-1-methoxy-1-oxopropan-2-yl]carbamoyl}methyl)disulfanyl]acetamido}propanoate] | 0.024 (±0.001) min^−1 | – | -0.163 | CNS^− (CNS^− (indicative of low BBB permeation): Pe (10^−6 cm/s) < 2) | 1.15 | – | – | – | – | – | – | – | – | – | – | – | –
4 | 0.837 | COC(=O)[C@@H](Cc1ccc(OC(C)=O)c(OC(C)=O)c1)NC(=O)[C@@H](CSSC[C@@H](NC(C)=O)C(=O)N[C@H](Cc1ccc(OC(C)=O)c(OC(C)=O)c1)C(=O)OC)NC(C)=O [SP3, Methyl (2R)-3-[3,4-bis(acetyloxy)phenyl]-2-[(2S)-3-{[(2S)-2-{[(2R)-3-[3,4-bis(acetyloxy)phenyl]-1-methoxy-1-oxopropan-2-yl]carbamoyl}-2-acetamidoethyl]disulfanyl}-2-acetamidopropanamido]propanoate] | 0.014 (±0.003) min^−1 | – | 1.07 | – | 3.1 | – | possess the capacity to cross the BBB | – | – | – | – | – | – | – | – | – | –
5 | – | N[C@@H](Cc1ccc(O)c(O)c1)C(=O)O [LD, L-p-3,4-dihydroxyphenylalanine hydrochloride, reference compound] | – | – | -2.46 | CNS^− (CNS^− (indicative of low BBB permeation): Pe (10^−6 cm/s) < 2) | 0.75 | – | – | – | seemed to increase it; also recorded: increase in superoxide anion levels | did not show cytotoxic effects | – | significant antioxidant activity | ineffective | ineffective | detrimental effect | toxic effect | partially counteract the toxic effect

Row | Structure (SMILES) | half-life at 1 mg/mL [1, 11] [h] | Kobs [1, 10] | t1/2 [1, 10] | logP [2] | Classification [3] | Papp at 16 h [3] [×10⁻⁶ cm/s] | half-life at 1 mg/mL [1, 12] [h] | capacity to cross the BBB [3] | stability in plasma ([1]; human plasma) | superoxide anion level [4] | cytotoxic effect [5, 13] | protection against 6-OHDA toxicity (cell viability) ([6]; 1 h before and during 24 h with 25, 50, 75, 150 µM 6-OHDA) | antioxidant activity (intracellular ROS) [7] | protection against H2O2 toxicity (cell viability) [8, 14] | protection against H2O2 toxicity (cell viability) [8, 15] | cytotoxic effect [9] | cytotoxic effect ([5]; 48 h, 100 µM) | protection against 6-OHDA toxicity (cell viability) ([6]; 1 h before and during 24 h with 150 µM 6-OHDA)
6 | COC(=O)[C@@H](Cc1ccc(O)c(O)c1)NC(=O)[C@@H](CC[Se]C)NC(C)=O [SP5, Methyl (2R)-3-(3,4-dihydroxyphenyl)-2-[(2R)-2-acetamido-4-(methylselanyl)butanamido]-propanoate] (Ac-[dSeMet]-[dDopa]-OMe) | 2.1 | 0.005 (±0.0001) min^−1 | – | 0.51 | CNS^− (CNS^− (indicative of low BBB permeation): Pe (10^−6 cm/s) < 2) | 2.3 | > 2 | unable to completely cross the BBB | – | – | – | – | – | – | – | – | – | –
7 | COC(=O)[C@@H](Cc1ccc(OC(C)=O)c(OC(C)=O)c1)NC(=O)[C@@H](CC[Se]C)NC(C)=O [SP6, Methyl (2R)-3-[3,4-bis(acetyloxy)phenyl]-2-[(2R)-2-acetamido-4-(methylselanyl)butanamido]-propanoate] | 2.89 | 0.004 (±0.0001) min^−1 | – | 1.44 | – | 4.5 | > 2 | possess the capacity to cross the BBB | resistant to the enzymatic hydrolyses by plasma esterases | significantly reduced the superoxide anion level | did not show cytotoxic effects | protective action against the toxin at all tested concentrations | significant antioxidant activity; also recorded: able to reduce ROS levels | effective in countering the toxic effect | partially countered | – | – | –
